We go through four molecules from patent US9125922B2, “Phosphate esters of gyrase and topoisomerase inhibitors” (priority 2011, dated 2015).

SMILES strings stand for the structures. Like-named read-outs stand apart in the source and are kept apart here. Bounds are passed on as bounds.

Data set [1] deals with S. aureus TopoIV enzyme (Staphylococcus aureus, UniProt P0C1S7). As to the kind of experiment: DNA Topo IV ATPase Assay. Type of data set: biochemical. As to the method:
The conversion of ATP to ADP by S. aureus TopoIV enzyme was coupled to the conversion of NADH to NAD+, and the progress of the reaction was measured by the change in absorbance at 340 nm. TopoIV (64 nM) was incubated with the selected compound (3% DMSO final) in buffer for 10 minutes at 30° C. The buffer consisted of 100 mM Tris 7.5, 1.5 mM MgCl2, 200 mM K·Glutamate, 2.5 mM phosphoenol pyruvate, 0.2 mM NADH, 1 mM DTT, 5 μg/mL linearized DNA, 50 μg/mL BSA, 30 μg/mL pyruvate kinase, and 10 μg/mL lactate dehyrodgenase (LDH). The reaction was initiated with ATP, and rates were monitored continuously for 20 minutes at 30° C. on a Molecular Devices SpectraMAX plate reader. The inhibition constant, Ki, was determined from plots of rate vs. concentration of selected compound fit to the Morrison Equation for tight binding inhibitors.

Data set [2] in a line: Aqueous Solubility Study. Type of data set: physicochemical. The note with it: aqueous buffer, thermodynamic from solid; water, pH adjusted with 1.0N HCl, stirred 96 hours at room temperature, filtered, HPLC; filtrate pH per compound (23: >3.0; X: 4.41; Y: 3.01; Z: 4.35). The method, then:
The aqueous solubilities of compounds 23, X, Y, and Z were determined according to the following procedure.
Aqueous samples of each compound were prepared as follows. Compounds were weighed (20-30 mg compound) in 4 ml clear vials prior to adding water (0.5 mL) and stirring by magnetic stirrer. 1.0N HCl was added to the suspension to adjust the pH to the desired range. After stirring for 96 hours at room temperature, the suspension was filtered through a 0.22 micron filter (Millipore, Ultrafree centrifugal filters, Durapore PVDF 0.22 μm, Cat# UFC30GVNB). The filtrate was collected and the pH measured with a pH meter. The filtrates containing compounds X and Z were diluted 100-fold and 400-fold, respectively, to provide an appropriate concentration for HPLC analysis.
Standard solutions of each compound were prepared according to the following procedure. 1 to 2 mg of each compound was accurately weighed into a 10 mL volumetric flask and either water (for compounds X and Z), methanol (for compound Y), or 1:1 methanol:0.1N HCl (for compound 23) was added to completely dissolve the compounds. Sonication was performed for compound 23 to assist with the dissolution in 1:1 methanol:0.1N HCl. When all solids dissolved, additional solvent was added to adjust the volume of each solution to 10 ml. The resulting solutions were thoroughly mixed to give the standard solutions of each compound. Each standard solution was then diluted with solvent by 2-fold, 10-fold, and 100-fold.
Aliquots of each sample and each standard solution were analyzed by HPLC analysis (Agilent 1100, injection volume 10 μL, wavelength 271 nm, column XTerra® Phenyl 5 μm, 4.6×50 mm, Part No. 186001144, mobile phase: A: 0.1% TFA in water 0.1% TFA in AcN). Each standard solution was injected three times, and each of the samples was injected twice. Standard curves were obtained by plotting the average of the peak area from the HPLC versus the concentrations of the standard solutions (with appropriate corrections of the weights of the standards based on total water content of the solid as determined by elemental analysis). The concentration of each sample was calculated from the peak area of the aqueous sample from the HPLC results and the slope and intercept of the standard curves. The solubility values listed in Table 3 below were derived from the product of the concentration of the sample and the dilution factor of the sample.

Data set [3] has as its target S. aureus DNA gyrase (Staphylococcus aureus, UniProt P0A0K8). As to the kind of experiment: DNA Gyrase ATPase Assay. The format is biochemical. The note with it: coupled ATPase assay, 30° C., 90 nM enzyme, 0.9 mM ATP; read-out: Ki, Inhibition of S. aureus DNA Gyrase. As to the method:
The ATP hydrolysis activity of S. aureus DNA gyrase was measured by coupling the production of ADP through pyruvate kinase/lactate dehydrogenase to the oxidation of NADH. This method has been described previously (Tamura and Gellert, 1990, J. Biol. Chem., 265, 21342).
ATPase assays were carried out at 30° C. in buffered solutions containing 100 mM TRIS pH 7.6, 1.5 mM MgCl2, 150 mM KCl. The coupling system contains final concentrations of 2.5 mM phosphoenol pyruvate, 200 μM nicotinamide adenine dinucleotide (NADH), 1 mM DTT, 30 ug/ml pyruvate kinase, and 10 ug/ml lactate dehydrogenase. The enzyme (90 nM final concentration) and a DMSO solution (3% final concentration) of the selected compound were added. The reaction mixture was allowed to incubate for 10 minutes at 30° C. The reaction was initiated by the addition of ATP to a final concentration of 0.9 mM, and the rate of NADH disappearance was monitored at 340 nanometers over the course of 10 minutes. The Ki values were determined from rate versus concentration profiles.

Where [4] appears, read: coupled ATPase assay, 30° C., 64 nM TopoIV, Morrison Equation fit, read-out: Ki, Inhibition of S. aureus DNA Topo IV.

S. aureus TopoIV enzyme, sequence (P0C1S7 whole entry): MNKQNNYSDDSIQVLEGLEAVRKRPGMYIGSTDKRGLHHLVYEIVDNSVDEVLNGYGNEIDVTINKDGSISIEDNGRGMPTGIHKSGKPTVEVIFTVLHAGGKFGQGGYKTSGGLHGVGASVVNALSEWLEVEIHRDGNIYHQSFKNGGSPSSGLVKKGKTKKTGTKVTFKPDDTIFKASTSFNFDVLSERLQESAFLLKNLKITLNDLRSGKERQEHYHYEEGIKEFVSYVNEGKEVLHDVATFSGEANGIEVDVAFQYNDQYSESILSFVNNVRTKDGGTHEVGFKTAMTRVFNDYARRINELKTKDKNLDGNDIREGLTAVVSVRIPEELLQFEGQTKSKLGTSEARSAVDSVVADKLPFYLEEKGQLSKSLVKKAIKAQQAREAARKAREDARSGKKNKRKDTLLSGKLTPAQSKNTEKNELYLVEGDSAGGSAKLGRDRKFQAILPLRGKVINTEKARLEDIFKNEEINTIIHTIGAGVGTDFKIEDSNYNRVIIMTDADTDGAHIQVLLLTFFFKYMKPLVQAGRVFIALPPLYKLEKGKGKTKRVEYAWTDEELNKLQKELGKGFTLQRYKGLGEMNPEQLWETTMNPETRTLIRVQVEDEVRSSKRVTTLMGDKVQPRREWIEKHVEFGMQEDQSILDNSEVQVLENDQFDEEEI
S. aureus TopoIV enzyme, sequence (P0C1U9 whole entry partner): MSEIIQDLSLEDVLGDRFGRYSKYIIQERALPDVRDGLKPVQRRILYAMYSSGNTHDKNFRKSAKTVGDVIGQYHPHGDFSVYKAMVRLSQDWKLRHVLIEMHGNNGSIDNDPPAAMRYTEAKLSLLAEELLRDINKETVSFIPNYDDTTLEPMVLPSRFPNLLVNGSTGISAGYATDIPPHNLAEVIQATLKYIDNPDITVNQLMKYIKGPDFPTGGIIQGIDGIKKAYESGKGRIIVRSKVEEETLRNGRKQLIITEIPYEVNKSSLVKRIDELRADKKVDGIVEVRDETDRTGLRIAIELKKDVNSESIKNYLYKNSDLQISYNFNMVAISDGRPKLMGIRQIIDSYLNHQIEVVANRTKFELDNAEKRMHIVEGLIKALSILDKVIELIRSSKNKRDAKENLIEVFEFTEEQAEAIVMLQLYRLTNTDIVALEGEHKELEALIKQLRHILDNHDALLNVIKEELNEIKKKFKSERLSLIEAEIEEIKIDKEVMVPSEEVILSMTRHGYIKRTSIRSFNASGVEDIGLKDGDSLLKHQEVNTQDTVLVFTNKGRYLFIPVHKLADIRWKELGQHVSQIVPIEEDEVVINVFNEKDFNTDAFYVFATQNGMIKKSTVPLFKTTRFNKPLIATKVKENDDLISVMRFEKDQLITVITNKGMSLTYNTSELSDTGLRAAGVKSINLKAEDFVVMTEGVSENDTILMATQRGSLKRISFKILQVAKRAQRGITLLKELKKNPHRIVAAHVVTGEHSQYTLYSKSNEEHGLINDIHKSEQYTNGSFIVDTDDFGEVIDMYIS
S. aureus DNA gyrase, sequence (P0A0K8 whole entry): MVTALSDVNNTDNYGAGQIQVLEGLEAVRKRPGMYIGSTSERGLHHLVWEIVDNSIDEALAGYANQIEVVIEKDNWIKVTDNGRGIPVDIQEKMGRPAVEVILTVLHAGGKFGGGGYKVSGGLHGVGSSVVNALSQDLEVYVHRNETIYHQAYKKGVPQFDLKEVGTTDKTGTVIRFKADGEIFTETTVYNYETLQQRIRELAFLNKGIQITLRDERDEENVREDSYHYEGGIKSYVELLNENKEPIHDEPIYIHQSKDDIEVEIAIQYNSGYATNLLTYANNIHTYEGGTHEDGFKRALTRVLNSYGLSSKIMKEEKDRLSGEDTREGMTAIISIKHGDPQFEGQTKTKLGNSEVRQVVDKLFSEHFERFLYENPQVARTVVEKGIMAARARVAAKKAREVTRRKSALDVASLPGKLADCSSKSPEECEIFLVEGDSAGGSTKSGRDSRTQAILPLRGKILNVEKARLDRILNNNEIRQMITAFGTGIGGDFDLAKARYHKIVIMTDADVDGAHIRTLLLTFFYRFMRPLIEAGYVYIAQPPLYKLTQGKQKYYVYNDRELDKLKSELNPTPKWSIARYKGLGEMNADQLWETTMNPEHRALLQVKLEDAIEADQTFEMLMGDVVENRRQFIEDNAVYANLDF
S. aureus DNA gyrase, sequence (P20831 whole entry partner): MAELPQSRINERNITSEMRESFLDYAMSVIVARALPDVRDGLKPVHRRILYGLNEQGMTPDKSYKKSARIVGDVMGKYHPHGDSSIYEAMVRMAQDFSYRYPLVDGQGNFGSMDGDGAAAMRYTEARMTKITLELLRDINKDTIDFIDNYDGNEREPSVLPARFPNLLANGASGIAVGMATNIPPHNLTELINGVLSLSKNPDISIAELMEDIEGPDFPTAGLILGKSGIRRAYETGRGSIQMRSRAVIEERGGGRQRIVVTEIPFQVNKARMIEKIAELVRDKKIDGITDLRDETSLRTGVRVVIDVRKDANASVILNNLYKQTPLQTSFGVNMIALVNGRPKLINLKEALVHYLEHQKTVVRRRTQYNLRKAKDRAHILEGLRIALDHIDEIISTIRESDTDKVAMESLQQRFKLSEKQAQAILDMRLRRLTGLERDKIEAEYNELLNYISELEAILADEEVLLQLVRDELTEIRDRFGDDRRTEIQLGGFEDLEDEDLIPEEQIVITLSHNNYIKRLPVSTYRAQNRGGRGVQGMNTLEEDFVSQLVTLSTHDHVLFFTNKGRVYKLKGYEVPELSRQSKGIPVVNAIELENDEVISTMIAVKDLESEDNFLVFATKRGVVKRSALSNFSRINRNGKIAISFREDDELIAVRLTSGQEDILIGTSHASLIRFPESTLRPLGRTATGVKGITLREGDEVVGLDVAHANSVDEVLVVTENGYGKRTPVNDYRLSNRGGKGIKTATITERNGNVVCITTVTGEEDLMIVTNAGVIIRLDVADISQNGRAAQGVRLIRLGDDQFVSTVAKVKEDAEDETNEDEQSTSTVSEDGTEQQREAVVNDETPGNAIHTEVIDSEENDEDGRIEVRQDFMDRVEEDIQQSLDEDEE

The term Ki denotes a dissociation constant, usually derived from enzyme kinetics or from competition with a known ligand. One may read the solubility as the dissolved amount per volume that the medium holds. Regarding `CCNC(=O)Nc1nc2cc(-c3cnc(C(C)(C)O)nc3)c(F)c([C@H]3CCCO3)c2[nH]1` [Compound 23, (R)-1-ethyl-3-(6-fluoro-5-(2-(2-hydroxypropan-2-yl)pyrimidin-5-yl)-7-(tetrahydrofuran-2-yl)-1H-benzo[d]imidazol-2-yl)urea], in data set [1], the Ki turned out to be 9 nM. Moreover, the solubility at 96 h in data set [2] was below 0.001 mg/mL.
For the molecule `CCNC(=O)Nc1nc2cc(-c3cnc(C(C)(C)OP(=O)(O)OCCOCCOC)nc3)c(F)c([C@H]3CCCO3)c2[nH]1` [Compound X, ammonium (R)-2-(5-(2-(3-ethylureido)-6-fluoro-7-(tetrahydrofuran-2-yl)-1H-benzo[d]imidazol-5-yl)pyrimidin-2-yl)propan-2-yl 2-(2-methoxyethoxy)ethyl phosphate], the Ki in data set [1] (setting [4]) is 45 nM; in data set [3], below 9 nM. This molecule showed a solubility at 96 h in data set [2] of 12.7 mg/mL.
The matching figures for `CCCCCCCCCCCCCCCCOP(=O)(O)OC(C)(C)c1ncc(-c2cc3nc(NC(=O)NCC)[nH]c3c([C@H]3CCCO3)c2F)cn1` [Compound Y, ammonium (R)-2-(5-(2-(3-ethylureido)-6-fluoro-7-(tetrahydrofuran-2-yl)-1H-benzo[d]imidazol-5-yl)pyrimidin-2-yl)propan-2-yl hexadecyl phosphate]: 24 nM, 13 nM and below 0.001 mg/mL.
Consider `CCNC(=O)Nc1nc2cc(-c3cnc(C(C)(C)OP(=O)(O)OCCN4CCOCC4)nc3)c(F)c([C@H]3CCCO3)c2[nH]1` [Compound Z, 2-(5-(2-(3-ethylureido)-6-fluoro-7-((R)-tetrahydrofuran-2-yl)-1H-benzo[d]imidazol-5-yl)pyrimidin-2-yl)propan-2-yl 2-morpholinoethyl hydrogen phosphate], for which the Ki in data set [1] (setting [4]) is 80 nM; in data set [3], below 9 nM. In data set [2], this molecule returned a solubility at 96 h above 41 mg/mL.
